Assay results reported in patent publication US7119123B2, “Antimicrobially active 4-methyl-4-aryl-2-pentanols, their preparation and use” (Symrise GmbH & Co. KG, priority 2004, dated 2006).

Assays:
Corynebacterium xerosis = test: agar dilution method, MIC; assay type: cell-based; conditions: ATCC7711; Corynebacterium xerosis ATCC 7711; Mueller-Hinton agar, aerobic, 18 h at 36° C.; read-out: MIC (minimum inhibitory concentration)
Method: (§1) Petri dishes 5.5 cm in diameter were charged with 8.7 ml freshly prepared Mueller-Hinton agar (Merck, Ref. 1.05437 or Wilkins-Chalgren agar boillon (sic), Oxoid, Ref. CM 643, supplemented with 10 g agar-agar/liter) kept liquid at 50° C., to which the various concentrations of the diluted samples were added in 3.3% (V/V)=0.3 ml. Mueller-Hinton agar that contained 3% Tween80 (Merck, Ref. 8.22 187) was used for the test germ Malassezia furfur.
(§2) 2.6 ml of the 3.3% samples were diluted with ethanol (96%; Merck, Ref. 1.00971). The further test concentrations of the particular dilution series, which were prepared in the form of geometric series, were prepared by progressive 2:1 dilution with ethanol (96%).
(§3) The concentrations indicated below relate to the pure substance and have been converted to ppm. Two agar plates were poured per test concentration and nutrient medium.
(§4) After solidification and drying (approximately 1 h at 37° C.), the test plates were inoculated in point form with, in each case, 1 μl of the test germ suspensions listed in the examples below. To check purity and identity, the bacteria (Brevibacterium epidermidis, Corynebakterium (sic) xerosis, Staphylococcus aureus; Staphylococcus epidermidis) which grow aerobically, were [lacuna] on Columbia blood agar (BioMérieux, Ref. 43049). The mould Aspergillus niger, the yeast Candida albicans and the skin fungus Trichophyton mentagrophytes were cultivated on Sabouraud agar (BioMérieux, Ref. 43555). Malassezia furfur was cultured on Sabourad-HLT agar with inhibitors (addition of Tween80: 1%; lecithin: 0.3%; histidine: 0.1%; Merck, Ref. 1.18368). Propionibacterium acnes was cultivated on Schaedler agar (BioMérieux, Ref. 43273). Further data on the test germs can be taken from Table 1.
(§5) The preparation of the test germ suspensions of the bacterial germs that grow aerobically was carried out by incubation of Mueller-Hinton broth (Merck, Ref. 1.10293) which had been inoculated with a few individual colonies of the relevant test germs, at 36° C. After a distinct turbidity had been obtained, sterile nutrient broth was added to the suspensions in such an amount that the turbidity thereof corresponded to McFarland Standard 0.5 (approx. 1.5×10^8 CFU/ml).
(§6) All test germ suspensions with the exception of Propionibacterium acnes were diluted again 1:10 with sterile broth and the germ count thereof was determined by the surface method using a Spiralometer (results: see Table 1).
(§7) The MIC (minimum inhibitory concentration) was regarded as the lowest concentration of active compound at which macroscopically there is no growth. Minimal, barely visible growth or few small individual colonies were evaluated as inhibition.
(§8) The MIC values of various (R/S)-4-methyl-4-aryl-2-pentanols were determined in accordance with the general test conditions described under 2.1. (c.f. Table 3; MIC values for (R/S[lacuna]-4-methyl-4-phenyl-2-pentanol, for (R/S)-4-methyl-4-p-tolyl-2-pentanol, (R/S)-4-methyl-4-p-cumenyl-2-pentanol and (R/S)-4-methyl-4-(4-n-butylphenyl)-2-pentanol).

[1] = test system: Staphylococcus epidermidis; test: agar dilution method, MIC; assay type: cell-based; conditions: ATCC12228; Staphylococcus epidermidis ATCC 12228; Mueller-Hinton agar, aerobic, 18 h at 36° C.; read-out: MIC (minimum inhibitory concentration)
Method: as §1, §2, §3, §4, §5, §6, §7, §8

[2] = test system: Brevibacterium epidermidis; test: agar dilution method, MIC; assay type: cell-based; conditions: ATCC35514; Brevibacterium epidermidis ATCC 35514; Mueller-Hinton agar, aerobic, 18 h at 36° C.; read-out: MIC (minimum inhibitory concentration)
Method: as §1, §2, §3, §4, §5, §6, §7, §8

glycolysis = conditions: known from J. Dental Res. 40,384 (1961); cariostatic; cited from earlier work
Propionibacterium acnes = test: agar dilution method, MIC; assay type: cell-based; conditions: for MIC: Cutibacterium acnes, ATCC11829, Propionibacterium acnes ATCC 11829, Wilkins-Chalgren agar, anaerobic, 72 h at 36° C., read-out: MIC (minimum inhibitory concentration); for activity against Propionibacterium acnes (in words): text comment on Table 3
Method: as §1, §2, §3, §4
(§9) For preparation of the other test germ suspensions, the test strains were cultured on the abovementioned solid nutrient medium, harvested using sterile swabs and taken up or diluted in such an amount of Mueller-Hinton broth that the turbidity of the suspensions corresponded to McFarland standard 0.5.
as §7, §8

Malassezia furfur = test: agar dilution method, MIC; assay type: cell-based; conditions: DSM6171; Malassezia furfur DSM 6171; Mueller-Hinton agar + 3% Tween 80, aerobic, 72 h at 30° C.; read-out: MIC (minimum inhibitory concentration)
Method: as §1, §2, §3, §4, §9, §6, §7, §8

[3] = test system: Trichophyton mentagrophytes; test: agar dilution method, MIC; assay type: cell-based; conditions: CBS26379; Trichophyton mentagrophytes CBS 26379; Mueller-Hinton agar, aerobic, 72 h at 30° C.; read-out: MIC (minimum inhibitory concentration)
Method: as §1, §2, §3, §4, §9, §6, §7, §8

Candida albicans = test: agar dilution method, MIC; assay type: cell-based; conditions: for MIC: ATCC10231, Candida albicans ATCC 10231, Mueller-Hinton agar, aerobic, 48 h at 30° C., read-out: MIC (minimum inhibitory concentration); for effectiveness against yeasts such as Candida albicans (in words): comparison among substances 2-5
Method: as §1, §2, §3, §4, §9, §6, §7, §8

Aspergillus niger = test: agar dilution method, MIC; assay type: cell-based; conditions: for MIC: ATCC16404, Aspergillus niger ATCC 16404, Mueller-Hinton agar, aerobic, 48 h at 30° C., read-out: MIC (minimum inhibitory concentration); for effectiveness against moulds (in words): comparison among substances 2-5
Method: as §1, §2, §3, §4, §9, §6, §7, §8

Escherichia coli = test: agar dilution method, MIC; assay type: cell-based; conditions: read-out: MIC (minimum inhibitory concentration)
Method: as §1, §2, §3, §7, §8

Pseudomonas aeruginosa = test: agar dilution method, MIC; assay type: cell-based; conditions: read-out: MIC (minimum inhibitory concentration)
Method: as §1, §2, §3, §7, §8

MIC (Corynebacterium xerosis) [µg/mL] | MIC [1] [µg/mL] | MIC [2] [µg/mL] | MIC (Propionibacterium acnes) [µg/mL] | MIC (Malassezia furfur) [µg/mL] | MIC [3] [µg/mL] | MIC (Candida albicans) [µg/mL] | MIC (Aspergillus niger) [µg/mL] | MIC (Escherichia coli) [µg/mL] | MIC (Pseudomonas aeruginosa) [µg/mL] | SMILES | glycolysis-inhibiting action (in words) (glycolysis) | activity against Propionibacterium acnes (in words) (Propionibacterium acnes) | effectiveness against yeasts such as Candida albicans (in words) (Candida albicans) | effectiveness against moulds (in words) (Aspergillus niger)
1100 | 1100 | 1100 | 1100 | 69 | 550 | 1100 | 550 | > 1100 | > 1100 | CC(O)CC(C)(C)c1ccccc1 (racemic) [Formula 2, (R,S)-4-methyl-4-phenyl-2-pentanol] | a certain glycolysis-inhibiting action | an activity can also be observed | most effective | most effective
69 | 1100 | 550 | > 1100 | 550 | 69 | > 1100 | > 1100 | > 1100 | > 1100 | CCCCc1ccc(C(C)(C)CC(C)O)cc1 (racemic) [Formula 5, (R,S)-4-methyl-4-(4-n-butylphenyl)-2-pentanol] |  | an activity can also be observed |  | 
275 | 550 | 550 | 550 | 69 | 138 | 1100 | 550 | > 1100 | > 1100 | Cc1ccc(C(C)(C)CC(C)O)cc1 (racemic) [Formula 3, (R,S)-4-methyl-4-p-tolyl-2-pentanol] |  | an activity can also be observed | most effective | most effective
69 | 138 | 138 | 138 | 550 | 69 | > 1100 | > 1100 | > 1100 | > 1100 | CC(O)CC(C)(C)c1ccc(C(C)C)cc1 (racemic) [Formula 4, (R,S)-4-methyl-4-p-cumenyl-2-pentanol] |  |  |  | 
